Results from patent publication US10183936B2, “Hepatitis B core protein allosteric modulators” (priority 2014, dated 2019).

Experiments:
AD38 cells = assay: Viability of AD38 cells (Promega CellTiter-Glo) at the end of compound treatment; type: cell-based; conditions: 10 μM compound, 6 days, luminescence normalized against DMSO control wells (controls being 100%)
Summary of the method: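 Luminescent CellTiter-Glo read-out, taken after supernatant was swapped for tetracycline-free 2% FBS medium with 1% DMSO, gave percent viability relative to DMSO controls set at 100%. Cells were plated at 50,000/well and exposed to compound, added as a 10× stock in 10% DMSO, for 6 days at 37° C.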

[1] = system: HBV viral production in AD38 cells; assay: Viral load production in AD38 cells by quantitative PCR of the HBV core sequence in supernatant; type: cell-based; conditions: 10 μM compound, 6 days at 37° C., viral load in supernatant compared against DMSO control wells; for activity at 10 µM: Hepatitis B virus, 144 h, read-out: AD38 Viral Load (CpAM/DMSO %) at 10 μM
Summary of the method: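 Read-out is TaqMan qPCR of the HBV core region in supernatant, quantitated against standards and referenced to DMSO controls (≥3 per plate). Cells: AD38 at 50,000/well, exposed to compound (added as 10× stock in 10% DMSO) for 6 days at 37° C.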

| Structure (SMILES) | AD38 Viability Normalized Result (CPAM/DMSO %) at 10 μM (AD38 cells) [%] | activity at 10 µM [1] [%] | AD38 Viral Load (CpAM/DMSO %) at 10 μM [1] [%] |
| --- | --- | --- | --- |
| Cc1c(C(=O)NCc2cccnc2)ccc2c1NC(=O)c1ccccc1S2 [Compound 1515] | 82 | 2 | – |
| CC(C)(C)c1ccc(CNC(=O)c2ccc3c(c2)NC(=O)c2ccccc2S3)cc1 [Compound 1165] | 82 | 5 | – |
| O=C(NCc1cccc(F)c1)c1ccc2c(c1)NC(=O)c1ccccc1S2 [Compound 1168] | 117 | 10 | – |
| O=C(NCCC12CC3CC(CC(C3)C1)C2)c1ccc2c(c1)NC(=O)c1ccccc1S2 [Compound 1170] | 95 | 1 | – |
| CCN1c2ccc(C(=O)NCCc3cccnc3)cc2NC(=O)c2ccccc21 [Compound 1523] | 70 | 1 | – |
| O=C(NCc1nnc[nH]1)c1ccc2c(c1)NC(=O)c1ccccc1S2 [Compound 1599] | 101 | 72 | – |
| O=C(NCCc1ccc(-n2ccnn2)cc1)c1ccc2c(c1)NC(=O)c1ccccc1S2 [Compound 1266] | 74 | 1 | – |
| O=C1Nc2cc(S(=O)(=O)Nc3ccc(F)cc3)ccc2Sc2ccccc21 [Compound 1413] | 78 | 92 | – |
| COCCNC(=O)c1ccc2c(c1)NC(=O)c1ccccc1S2 [Compound 1171] | 103 | 49 | – |
| COc1ccccc1CNC(=O)c1ccc2c(c1)NC(=O)c1ccccc1S2 [Compound 1159] | 92 | 8 | – |
| O=C(NCC1CCOCC1)c1ccc2c(c1)NC(=O)c1ccccc1S2 [Compound 1607] | 93 | 14 | – |
| O=C(Nc1cccc(-c2cncs2)c1)c1ccc2c(c1)NC(=O)c1cc(F)ccc1S2 [Compound 1441] | 90 | 28 | – |
| O=C(Nc1ccc(F)cc1)c1ccc2c(c1)NC(=O)c1cc(F)ccc1S2 [Compound 1316] | 89 | 32 | – |
| O=C(NCc1cncs1)c1ccc2c(c1)NC(=O)c1c(F)cccc1S2 [Compound 1541] | 117 | 11 | – |
| CC(C)(C)c1ccc(CCNC(=O)c2ccc3c(c2)NC(=O)c2ccccc2S3)cc1 [Compound 1194] | 45 | 1 | – |
| O=C(NCCc1ccccn1)c1ccc2c(c1)NC(=O)c1cc(F)ccc1S2 [Compound 1310] | 89 | 1 | – |
| O=C(NCc1cccnc1)c1ccc2c(c1)NC(=O)c1ccccc1S2(=O)=O [Compound 1449] | 86 | 2 | – |
| O=C1Nc2cc(S(=O)(=O)NCc3ccccc3)ccc2Sc2ccccc21 [Compound 1414] | 89 | 39 | – |
| O=C1Nc2cc(S(=O)(=O)N3CCC(O)CC3)ccc2Sc2ccccc21 [Compound 1431] | 92 | 115 | – |
| O=C(NCCc1cccnc1)c1ccc2c(c1)NC(=O)c1ccc(F)cc1S2 [Compound 1377] | 65 | 5 | – |
| O=C(NCCc1cncs1)c1ccc2c(c1)NC(=O)c1ccc(F)cc1S2 [Compound 1403] | 82 | 15 | – |
| CCN1c2ccc(C(=O)NCc3cnco3)cc2NC(=O)c2ccccc21 [Compound 1564] | 119 | 10 | – |
| O=C(Nc1ccc(F)cc1Cl)c1ccc2c(c1)NC(=O)c1cc(F)ccc1S2 [Compound 1323] | 60 | 96 | – |
| Cc1c(C(=O)NCCc2cccnc2)ccc2c1NC(=O)c1ccccc1S2 [Compound 1467] | 92 | 1 | – |
| O=C(NCCc1cnco1)c1ccc2c(c1)NC(=O)c1cc(F)ccc1S2 [Compound 1417] | 75 | 11 | – |
| O=C(NCCc1cccc(O)c1)c1ccc2c(c1)NC(=O)c1ccccc1S2 [Compound 1118] | 95 | 61 | – |
| O=C(NCc1cnc(-c2ccccc2)nc1)c1ccc2c(c1)NC(=O)c1cc(F)ccc1S2 [Compound 1315] | 103 | 4 | – |

| Structure (SMILES) | AD38 Viability Normalized Result (CPAM/DMSO %) at 10 μM (AD38 cells) [%] | activity at 10 µM [1] [%] | AD38 Viral Load (CpAM/DMSO %) at 10 μM [1] [%] |
| --- | --- | --- | --- |
| O=C(Nc1cccc(-c2cncnc2)c1)c1ccc2c(c1)NC(=O)c1cc(F)ccc1S2 [Compound 1440] | 91 | 71 | – |
| O=C(NCCc1ccc(-c2ccccc2)cc1)c1ccc2c(c1)NC(=O)c1cc(F)ccc1S2 [Compound 1370] | 94 | 5 | – |
| O=C(NCc1cncs1)c1ccc2c(c1)NC(=O)c1ccccc1[SH]2O (stereo not shown) [Compound 1536] | 120 | – | 2 |
| CCN1c2ccc(C(=O)NCCc3ccc(-c4ccccc4)cc3)cc2NC(=O)c2ccccc21 [Compound 1524] | 18 | 2 | – |
| CC(=O)Nc1ccccc1CNC(=O)c1ccc2c(c1)NC(=O)c1ccccc1S2 [Compound 1253] | 103 | 15 | – |
| CN1C(=O)c2ccccc2Sc2ccc(C(=O)NCc3cccnc3)cc21 [Compound 1553] | 93 | 86 | – |
| O=C(NCCc1nnc[nH]1)c1ccc2c(c1)NC(=O)c1ccccc1S2 [Compound 1551] | 91 | 51 | – |
| O=C(Nc1ccc2ncsc2c1)c1ccc2c(c1)NC(=O)c1cc(F)ccc1S2 [Compound 1325] | 90 | 26 | – |
| CN(C)S(=O)(=O)c1ccc(CCNC(=O)c2ccc3c(c2)NC(=O)c2ccccc2S3(=O)=O)cc1 [Compound 1619] | 122 | 12 | – |
| O=C(NCCc1cncs1)c1ccc2c(c1)NC(=O)c1ccccc1S2(=O)=O [Compound 1617] | 118 | 1 | – |
| O=C(Nc1cccc(-c2ccccc2)c1)c1ccc2c(c1)NC(=O)c1c(F)cccc1S2 [Compound 1472] | 95 | 37 | – |
| O=C(NCC1CCCCC1)c1ccc2c(c1)NC(=O)c1ccccc1S2 [Compound 1169] | 107 | 39 | – |
| O=C(NCc1nncs1)c1ccc2c(c1)NC(=O)c1ccccc1S2 [Compound 1571] | 117 | 35 | – |
| O=C(NCCc1ccccn1)c1ccc2c(c1)NC(=O)c1ccccc1[S+]2[O-] (stereo not shown) [Compound 1374] | 98 | 1 | – |
| O=C(NCc1cncnc1)c1ccc2c(c1)NC(=O)c1c(F)cccc1S2 [Compound 1540] | 87 | 12 | – |
| O=C(NCCc1ccccn1)c1cc2c(cc1F)Sc1ccccc1C(=O)N2 [Compound 1394] | 94 | 55 | – |
| O=C(NCc1cncs1)c1ccc2c(c1)NC(=O)c1cc(F)ccc1S2 [Compound 1309] | 107 | 1 | – |
| O=C(Nc1ccccc1F)c1ccc2c(c1)NC(=O)c1cc(F)ccc1S2 [Compound 1322] | 94 | 28 | – |
| O=C(NCCC1CCCCC1)c1ccc2c(c1)NC(=O)c1ccccc1S2 [Compound 1105] | 101 | 1 | – |
| O=C(NCc1cncs1)c1ccc2c(c1)NC(=O)c1ccccc1N2 [Compound 1602, 11-oxo-N-(thiazol-5-ylmethyl)-10, 11-dihydro-5H-dibenzo [b,e] [1,4] diazepine-8-carboxamide] | 116 | 38 | – |
| COc1ccc2c(c1)C(=O)Nc1cc(C(=O)NCCC3CCCCC3)ccc1S2 [Compound 1272] | 102 | 24 | – |
| CC(C)(C)c1ccc([C@@H](CO)NC(=O)c2ccc3c(c2)NC(=O)c2cc(F)ccc2S3)cc1 [Compound 1313] | 108 | 17 | – |
| Cc1nnc(CCNC(=O)c2ccc3c(c2)NC(=O)c2ccccc2S3)o1 [Compound 1603] | 91 | 6 | – |
| CC(=O)N1CCC(CNC(=O)c2ccc3c(c2)NC(=O)c2ccccc2S3)CC1 [Compound 1601, N-((1-acetylpiperidin-4-yl)methyl)-11-oxo-10, 11-dihydrodibenzo [b,f] [1,4] thiazepine-8-carboxamide] | 106 | 62 | – |
| O=C(Nc1ccccc1O)c1ccc2c(c1)NC(=O)c1ccccc1S2 [Compound 1229] | 76 | 45 | – |
| O=C(Nc1ccncc1)c1ccc2c(c1)NC(=O)c1ccccc1N2Cc1ccccc1 [Compound 1494] | 60 | 115 | – |
